Values of other authors, collected in US20200399681A1, “ASSAY FOR DETECTION OF ANDROGEN RECEPTOR VARIANTS” (Cornell University, priority 2018, published 2020).
Read-outs that look alike come from different tables or passages of the source.

Columns and labels:
prostate cancer patients [1] = test system: prostate cancer patients
prostate cancer patients [2] = test system: prostate cancer patients; remark: listed apart in the source

Structure (SMILES): CNC(=O)c1ccc(N2C(=S)N(c3ccc(C#N)c(C(F)(F)F)c3)C(=O)C2(C)C)cc1F [enza, enzalutamide]
- adjusted HR for AR-V7 (TTF, multivariable analysis) (prostate cancer patients [1]; high AR-V7 expression, adjusted for covariates): cohort (adjusted HR = 2.02
- median OS (prostate cancer patients [1]; pts with high AR-V7 expression (the shorter OS)): 13.8 months
- time to treatment failure (TTF), median (prostate cancer patients [1]; pts with high AR-V7 expression (top tertile, >19 copies/mg RNA)): P = 0.046) and median 3.6 months
- median OS (prostate cancer patients [1]; pts without high AR-V7 expression): 29.1 months
- PSA progression-free survival, median (prostate cancer patients [2]; AR-V7- (negative) pts): 6.0 months; P < 0.001) &
- overall survival (OS), median (prostate cancer patients [2]; AR-V7- (negative) pts): not reached
- overall survival (OS), median (prostate cancer patients [2]; AR-V7-positive pts): 5.5 months
- PSA response rates, AR-V7-positive pts compared with AR-V7- pts (prostate cancer patients [2]; AR-V7-positive vs AR-V7- pts): positive pts had lower PSA
